The values below come from US12291503B2, “Crystalline form of compound, method for preparing the same, pharmaceutical composition and use” (Beijing Konruns Pharmaceutical Co., Ltd., priority 2019, dated 2025).

In one series the target is VEGF-R2 (Homo sapiens, UniProt P35968). The experiment in a line: IC50 against VEGF-R2. The format is biochemical.
For another series, the system named is MOLM-13 cells. The experiment in a line: Human acute myeloid leukemia subcutaneous xenograft tumor model (MOLM-13). The format is in vivo, mice. The source says:
Mice were inoculated subcutaneously with MOLM-13 cells and a human acute myeloid leukemia subcutaneous xenograft tumor model was established. After 14 days of intragastric administration of the crystalline form AB to animals, tumors were taken and tumor volume data were collected.

In a further series the test system is NCI-H1703 cells. Put plainly: Lung cancer subcutaneous xenotransplantation tumor model (NCI-H1703). The format is in vivo, mice. The settings on record: for Tumor Inhibition Rate %: intragastric, 28 days, below line 'Micronization'. An excerpt: NCIH-1703 cells were inoculated subcutaneously in mice to establish a lung cancer subcutaneous xenotransplantation tumor model. After 28 days of intragastric administration of the crystalline form AB to animals, tumors were taken and tumor volume data were collected.

Series [1] in a line: Accelerated stability test of the crystalline form AB (40±2° C., RH 75%±5%, vials sealed and open). It is filed as physicochemical. To be noted: for Purity (HPLC method) Open / Purity (HPLC method) Sealed: 40±2° C., RH 75%±5%. The method, then: Accelerated stability test: the compound 1 was contained in vials, and these vials in sealed and open manners respectively were placed in closed containers (desiccators) with a relative humidity of 75%±5%; the desiccators were placed in an incubator at a temperature of 40±2° C. for 7 months; small samples were taken out at 0, 1, 2, 7 months respectively for detection.

Series [2] in a line: Bioavailability analysis (pharmacokinetics) of crystalline forms in mice. The arrangement: AUClast / AUCInf: concentration or dose not given beside the values. The format is in vivo. To be noted: gavage, suspension in CMC-Na, mean. The procedure: Drug samples of different crystalline forms of the compound 1 were added to a solution of 1 CMC-Na respectively to prepare suspensions, which were administrated to mice by gavage. Drug samples of the different crystalline forms of the compound 1 were prepared into solutions in DMSO/PEG400/water and administered intravenously to mice. After drug administration, blood samples were collected from the dorsal vein of foot at different time points. After anticoagulation with heparin sodium, plasma was extracted by centrifugation. Plasma samples were analyzed by LC-MS/MS to obtain plasma drug concentrations. Pharmacokinetic parameters were calculated by WinNonlin (Phoenix™) The results of the bioavailability analysis for the crystalline form AB, the crystalline form M, and the crystalline form F are presented in Table 6.

The target of another series is T1, AXL (Homo sapiens, UniProt P30530).
T1 sequence (P30530 26-894): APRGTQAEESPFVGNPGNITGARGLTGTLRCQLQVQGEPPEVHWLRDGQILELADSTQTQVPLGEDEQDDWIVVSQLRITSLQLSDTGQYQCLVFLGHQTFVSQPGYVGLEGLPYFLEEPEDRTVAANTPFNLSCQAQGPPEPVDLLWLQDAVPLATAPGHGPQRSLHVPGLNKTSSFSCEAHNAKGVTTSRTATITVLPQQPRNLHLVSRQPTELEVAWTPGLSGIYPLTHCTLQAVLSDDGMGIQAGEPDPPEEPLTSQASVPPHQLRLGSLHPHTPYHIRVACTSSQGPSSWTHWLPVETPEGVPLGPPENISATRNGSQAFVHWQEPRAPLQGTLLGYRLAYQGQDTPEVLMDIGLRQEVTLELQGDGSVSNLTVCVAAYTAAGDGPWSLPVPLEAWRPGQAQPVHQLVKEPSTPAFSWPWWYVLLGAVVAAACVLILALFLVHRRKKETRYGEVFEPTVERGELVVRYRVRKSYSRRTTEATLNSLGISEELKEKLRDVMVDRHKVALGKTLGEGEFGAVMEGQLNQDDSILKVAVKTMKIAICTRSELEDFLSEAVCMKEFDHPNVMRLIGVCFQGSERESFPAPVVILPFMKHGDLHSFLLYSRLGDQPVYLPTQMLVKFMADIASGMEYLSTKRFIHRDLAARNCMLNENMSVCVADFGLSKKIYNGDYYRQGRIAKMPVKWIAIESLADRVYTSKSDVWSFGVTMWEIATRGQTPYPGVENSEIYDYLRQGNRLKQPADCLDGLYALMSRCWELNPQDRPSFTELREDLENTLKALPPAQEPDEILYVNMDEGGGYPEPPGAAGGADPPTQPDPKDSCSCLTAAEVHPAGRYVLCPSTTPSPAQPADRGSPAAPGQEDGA
Put plainly: IC50 against AXL. The format is biochemical.

Series [3] is described as follows: Accelerated stability test of the crystalline form M and the crystalline form F (40±2° C., RH 75±5%, open petri dish). The format is physicochemical. The settings on record: for Change in purity in 3 months' accelerated stability test: before and after grinding/pulverization. The method, then:
Accelerated stability test: the crystalline form M of the compound 1 was contained in a petri dish, which was placed in an open manner in a closed container (desiccator) with a relative humidity of 75±5%; the desiccator was placed in an incubator at 40±2° C. for 3 months, and small samples were taken out at 0, 1, 2, 3 months respectively for detection.
Accelerated stability test: the crystalline form F of the compound 1 was contained in a petri dish, which was put in an open manner in a closed container (desiccator) with a relative humidity of 75±5%; the desiccator was placed in an incubator at 40±2° C. for 3 months; small samples were taken out at 0, 1, 2 and 3 months respectively for detection.

The mark [4] stands for this setting: 1 month, open, 40±2° C., RH 75±5%.
The mark [5] stands for this setting: 2 months, open, 40±2° C., RH 75±5%.
Setting [6] is: 3 months, open, 40±2° C., RH 75±5%.

Like-named read-outs stand apart in the source and are kept apart here.

Chain of VEGF-R2 (P35968 20-1356): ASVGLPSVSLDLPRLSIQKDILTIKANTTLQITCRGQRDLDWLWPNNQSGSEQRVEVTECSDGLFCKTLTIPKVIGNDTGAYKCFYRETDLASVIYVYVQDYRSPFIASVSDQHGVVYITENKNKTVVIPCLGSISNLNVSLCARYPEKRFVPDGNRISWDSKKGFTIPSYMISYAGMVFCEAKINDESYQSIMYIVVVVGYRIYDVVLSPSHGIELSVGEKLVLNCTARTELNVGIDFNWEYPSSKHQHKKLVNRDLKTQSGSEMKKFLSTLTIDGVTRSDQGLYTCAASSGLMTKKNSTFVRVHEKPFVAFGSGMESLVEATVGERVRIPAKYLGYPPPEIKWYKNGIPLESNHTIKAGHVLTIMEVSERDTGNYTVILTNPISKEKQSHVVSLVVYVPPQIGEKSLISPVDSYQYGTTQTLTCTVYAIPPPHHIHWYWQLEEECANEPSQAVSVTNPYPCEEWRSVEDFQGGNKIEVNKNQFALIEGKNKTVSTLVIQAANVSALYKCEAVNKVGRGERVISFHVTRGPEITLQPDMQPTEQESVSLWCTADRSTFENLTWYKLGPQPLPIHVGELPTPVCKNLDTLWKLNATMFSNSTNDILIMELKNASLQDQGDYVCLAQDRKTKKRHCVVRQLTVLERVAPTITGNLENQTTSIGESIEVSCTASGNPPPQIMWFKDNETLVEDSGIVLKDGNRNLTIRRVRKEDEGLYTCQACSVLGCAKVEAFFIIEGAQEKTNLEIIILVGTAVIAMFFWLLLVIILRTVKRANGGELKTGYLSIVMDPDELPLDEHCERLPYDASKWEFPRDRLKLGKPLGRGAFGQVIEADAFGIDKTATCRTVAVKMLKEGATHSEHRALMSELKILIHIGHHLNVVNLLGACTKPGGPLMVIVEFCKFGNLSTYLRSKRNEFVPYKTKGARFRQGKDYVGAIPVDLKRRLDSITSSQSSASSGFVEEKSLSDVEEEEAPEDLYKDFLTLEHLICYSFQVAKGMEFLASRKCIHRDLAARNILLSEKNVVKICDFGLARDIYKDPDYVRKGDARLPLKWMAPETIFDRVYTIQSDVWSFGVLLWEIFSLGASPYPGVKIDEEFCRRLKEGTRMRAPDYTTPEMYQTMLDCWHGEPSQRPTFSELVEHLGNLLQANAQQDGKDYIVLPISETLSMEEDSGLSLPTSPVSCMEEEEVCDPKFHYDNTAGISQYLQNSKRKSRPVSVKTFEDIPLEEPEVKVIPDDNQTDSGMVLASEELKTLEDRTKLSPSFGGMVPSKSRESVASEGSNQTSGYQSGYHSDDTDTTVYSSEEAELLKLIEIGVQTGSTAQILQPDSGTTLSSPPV

As for `COc1cc2c(Oc3ccc(NC(=O)C4(C(=O)Nc5ccc(F)cc5)CC4)cc3F)ccnc2cc1OCCCCCC(=O)O` [crystalline form AB, 6-[[4-[2-fluoro-4-[[1-[(4-fluorophenyl)aminoformyl]cyclopropanecarbonyl]amino]phenoxy]-6-methoxy-7-quinolyl]oxy] hexanoic acid], the IC50 at VEGF-R2 came to 0.38 nM; at AXL, 0.24 nM. Besides, the “Tumor Inhibition Rate %” value with MOLM-13 cells (1.5 mg/kg, intragastric, 14 days) is recorded as 51.5%; in the series on MOLM-13 cells (3 mg/kg, intragastric, 14 days) it was 81.9%; in the series on MOLM-13 cells (6 mg/kg, intragastric, 14 days), 96.7%; in the series on MOLM-13 cells (6.25 mg/kg, intragastric, 14 days) it was 95.6%; in the series with NCI-H1703 cells (6.25 mg/kg) it was 87.0%; in the series on NCI-H1703 cells (12.5 mg/kg) it was 94.7%. The “Tumor Inhibition Rate %” value with NCI-H1703 cells (25 mg/kg) amounted to 98.5%; in the series on NCI-H1703 cells (50 mg/kg) it was 99.2%. Moreover, the “Tumor growth” value in the series with MOLM-13 cells (3 mg/kg) was “significantly inhibited tumor growth”; with MOLM-13 cells (6 mg/kg or 6.25 mg/kg) it was “inhibited tumor growth, and the tumor disappeared in some mice on day 14 after the administration”; in the series with NCI-H1703 cells (6.25 mg/kg) it was “significantly inhibit tumor growth”; with NCI-H1703 cells (12.5 mg/kg), “significantly inhibit tumor growth and tumor regression was observed for some mice”; with NCI-H1703 cells (12.5 mg/kg, 25 mg/kg and 50 mg/kg) it was “significantly inhibited tumor growth and the number of tumor regression cases presented a gradual increase”. The “median effective dose EC50” value in the series with MOLM-13 cells (intragastric, 14 days) turned out to be 1.5 mg/kg. For the same compound, the “Purity (HPLC method) Open” value was found to be 99.36% in series [1] (1 month), 99.35% in series [1] (2 months) and 99.36% in series [1] (7 months). Also, the “Purity (HPLC method) Sealed” value in series [1] (1 month) was 99.32%; in series [1] (2 months), 99.34%; in series [1] (7 months) it was 99.32%. Moreover, the “Stability (conclusion in words)” value in series [1] (accelerated stability test, 7 months) is recorded as “good stability”. Moreover, in series [1] (storage time 0 month), the “Purity (HPLC method)” value is 99.35%. For the same compound, the AUCInf in series [2] amounted to 2414 ng·h/mL. In series [2], the “AUC_% Extrap” value came to 1.19%. In series [2], this compound had an AUClast of 2399 ng·h/mL. This compound also returned an AUClast/D in series [2] of 240 ng·h/mL per mg/kg. This compound had a Cmax in series [2] of 930 ng/mL. In addition, in series [2], the mean residence time (MRT) is listed as 1.91 h. In addition, the T1/2 in series [2] was determined as 0.86 h. The time of peak concentration (Tmax) in series [2] (mouse, plasma, po, 10 mg/kg, read-out: Tmax) turned out to be 1.33 h.

Turning to `COc1cc2c(Oc3ccc(NC(=O)C4(C(=O)Nc5ccc(F)cc5)CC4)cc3F)ccnc2cc1OCCCCCC(=O)O` [crystalline form F, 6-[[4-[2-fluoro-4-[[1-[(4-fluorophenyl)aminoformyl]cyclopropanecarbonyl]amino]phenoxy]-6-methoxy-7-quinolyl]oxy] hexanoic acid], in series [2], the AUCInf turned out to be 675 ng·h/mL, the “AUC_% Extrap” value came out at 22.7%, the AUClast was 505 ng·h/mL and the AUClast/D was determined as 50.5 ng·h/mL per mg/kg. Further, in series [2], the Cmax came out at 201 ng/mL, the MRT is listed as 3.05 h, the T1/2 is recorded as 1.7 h and the Tmax was determined as 1.5 h. In addition, in series [3] (0 month), the “Purity (HPLC method) After grinding” value came to 99.13% and the “Purity (HPLC method) Before grinding” value is 99.13%. For the same compound, in series [3] (setting [4]), the “Purity (HPLC method) After grinding” value turned out to be 99.32% and the “Purity (HPLC method) Before grinding” value is listed as 99.33%. Moreover, in series [3] (setting [5]), the “Purity (HPLC method) After grinding” value amounted to 99.07% and the “Purity (HPLC method) Before grinding” value was determined as 99.09%. Besides, in series [3] (setting [6]), the “Purity (HPLC method) After grinding” value amounted to 99.06% and the “Purity (HPLC method) Before grinding” value turned out to be 99.07%. Besides, in series [3], the “Change in purity in 3 months' accelerated stability test” value is “substantially no change in purity”.

As to `COc1cc2c(Oc3ccc(NC(=O)C4(C(=O)Nc5ccc(F)cc5)CC4)cc3F)ccnc2cc1OCCCCCC(=O)O` [crystalline form M, 6-[[4-[2-fluoro-4-[[1-[(4-fluorophenyl)aminoformyl]cyclopropanecarbonyl]amino]phenoxy]-6-methoxy-7-quinolyl]oxy] hexanoic acid], in series [2], the AUCInf came out at 1110 ng·h/mL, the “AUC_% Extrap” value was found to be 39%, the AUClast worked out at 581 ng·h/mL and the AUClast/D was determined as 58.1 ng·h/mL per mg/kg. In series [2], the Cmax worked out at 200 ng/mL, the mean residence time (MRT) is recorded as 5.65 h, the T1/2 came to 3.61 h and the Tmax amounted to 0.917 h. Further, in series [3] (0 month), the “Purity (HPLC method) After grinding” value came out at 99.22% and the “Purity (HPLC method) Before grinding” value is listed as 99.21%. For the same compound, in series [3] (setting [4]), the “Purity (HPLC method) After grinding” value turned out to be 99.37% and the “Purity (HPLC method) Before grinding” value stood at 99.36%. In series [3] (setting [5]), the “Purity (HPLC method) After grinding” value is reported as 99.17% and the “Purity (HPLC method) Before grinding” value was 99.16%. For the same compound, in series [3] (setting [6]), the “Purity (HPLC method) After grinding” value stood at 99.19% and the “Purity (HPLC method) Before grinding” value turned out to be 99.19%. In addition, the “Change in purity in 3 months' accelerated stability test” value in series [3] was “substantially no change in purity”.
